Assay: Stability study, storage 5° C.
Type: physicochemical
Protocol: For 6-(4-(tert-butyl)phenoxy)pyridin-3-amine monohydrochloride two different types of stability studies were performed including short-term and long-term stability studies, respectively, […] In terms of analytical determinations six tests were involved including appearance, assay free base mean and purity mean, water, IR and XRPD. Appearance was determined by visual inspection. The product should be a white or off-white powder. Water content was determined according to USP <921> coulometric method. Identification of 6-(4-(tert-butyl)phenoxy)pyridin-3-amine monohydrochloride by IR spectroscopy was done according to USP <197>, comparing the spectrum obtained to that of the reference standard. X-Ray powder diffraction (XRPD) was performed according to USP <941> against the reference XRPD spectrum. Purity and assay of free base was done by HPLC-UV. Two methods were used. Mobile phases in the first method were water and acetonitrile. Mobile phases in the second method were water (0.5 mL of trifluoroacetic acid was added to 1000 mL of water) and acetonitrile (0.4 mL of trifluoroacetic acid was added to 1000 mL of acetonitrile). Equipment and chromatographic conditions for identification and determination of purity and assay of the 6-(4-(tert-butyl)phenoxy)pyridin-3-amine monohydrochloride by HPLC-UV according to the first method and the second method, respectively, are shown in Tables 5 and 6. [table] [table]

[1] = 6 months stability studies, 55° C., 3 mths
[2] = 6 months stability studies, 55° C., 6 mths
[3] = 6 months stability studies, 55° C., Release data
[4] = 36 months stability studies, 5° C., 6 mths
[5] = 36 months stability studies, 5° C., 9 mths
[6] = 36 months stability studies, 5° C., 12 mths
[7] = 36 months stability studies, 5° C., 18 mths
[8] = 36 months stability studies, 5° C., 24 mths

- Assay free base, mean [1]: 87.2 % m/m
- IR, conforms to reference [1]: complies
- Purity, mean [1]: 99 % area
- Water [1]: 0.02 % m/m
- Assay free base, mean [2]: 87.6 % m/m
- IR, conforms to reference [2]: complies
- Purity, mean [2]: 99 % area
- Water [2]: 0.02 % m/m
- Assay free base, mean [3]: 89.4 % m/m
- IR, conforms to reference [3]: complies
- Purity, mean [3]: 100.0 % area
- Water [3]: 0.01 % m/m
- Water (36 months stability studies, 5° C., 3 mths): 0.02 % m/m
- Assay free base, mean [4]: 87.5 % m/m
- Purity, mean [4]: 100.0 % area
- Water [4]: 0.02 % m/m
- Assay free base, mean [5]: 89.6 % m/m
- Purity, mean [5]: 100.0 % area
- Water [5]: 0.03 % m/m
- Assay free base, mean [6]: 87.3 % m/m
- Purity, mean [6]: 100.0 % area
- Water [6]: 0.02 % m/m
- Assay free base, mean [7]: 87.0 % m/m
- Purity, mean [7]: 100.0 % area
- Water [7]: 0.01 % m/m
- Assay free base, mean [8]: 88.3 % m/m
- Purity, mean [8]: 100.0 % area
- Water [8]: 0.02 % m/m
- Water (36 months stability studies, 5° C., Release data): 0.01 % m/m
Compound: CC(C)(C)c1ccc(Oc2ccc(N)cn2)cc1.Cl [6-(4-(tert-butyl)phenoxy)pyridin-3-amine monohydrochloride]
